Key:
HBsAg = settings: read-out: EC50, Extracell. HBsAg reduction; HepG2.2.15 cells
Description: (§1) Cell viability was assessed by ATP levels determined using the CellTiter-Glo reagent and the results normalized to the level in mock-treated cells. HBsAg levels were quantified using ELISA and the data normalized to the level in the mock-treated cells.
The cellular proteins GRP78/BIP, SRSF1, HNRNPA2B1, RPLP1, and RPLP2 were identified as having roles in HBV replication and infection. Various siRNAs and combinations thereof targeting the RNAs encoding these proteins were contacted with HepG2.2.15 cells at a final concentration of 7.5 nM.
The EC50 values of several siRNAs and combinations of siRNAs targeting HNRNPA2B1, GRP78, RPLP1, RPLP2, and/or SRSF1 were determined with respect to the ability to reduce HBsAg levels in HepG2.2.15 cells.
(§2) The ability of siRNAs targeting host factors that then results in the reduced production of multiple HBV molecules was evaluated by quantifying the amount of HBsAg, HBeAg, and Core protein produced by HepG2.2.15 cells after contacting with 10 nM of siRNAs that target HNRNPA2B1, GRP78, RPLP1, RPLP2, and SRSF1. We also contacted the cells with 5 nM of each set of siRNAs that targets both RPLP1 and RPLP2. The level of HBsAg, HBeAg, and Core were all determined using ELISAs.
(§3) The library of siRNAs of Example A5 were tested for the reduction of HBsAg secreted by HepG2.2.15 cells and in HBV virions.

HepG2.2.15 cells = experiment: HepG2.2.15 cell viability, CellTiter-Glo; settings: read-out: CC50, HepG2.2.15 cell viability; highest concentration tested 80 nM
Description: as §1
The effects on cell viability were quantified using the CellTiter-Glo reagent. All data were normalized to the amount of protein produced by mock-treated cells.
as §3

HBeAg = settings: 10 nM siRNA transfected into cells
Description: HBeAg in the cell culture media was assessed using ELISAs.
as §2, §3

GRP78 mRNA = experiment: Target mRNA reduction by RT-qPCR in HepG2.2.15 cells; assay type: cell-based, human; settings: 10 nM siRNA
From the text: (§4) The siRNAs identified as described in Example A6 should function by a mechanism that includes being loaded in the RISC complex to cleave the cognate mRNA, leading to the degradation of the mRNA. To examine whether the siRNAs are effective in reducing the target mRNA, we used reverse transcription coupled with quantitative polymerase chain reaction (RT-qPCR) to assess the level of the target mRNA in HepG2.2.15 cells. All 32 siRNAs described in Table 2 reduced the mRNA by more than 75% (Table 3).

GRP78 protein = experiment: Target protein reduction by Western blot in HepG2.2.15 cells; assay type: cell-based, human; settings: 10 nM siRNA, 72 h
Description: (§5) The host factors likely function in viral infection as proteins. Therefore, we determined whether the siRNAs could decrease the amounts of the target protein. Cell transfected with 10 nM of each siRNA for 72 h were lysed and the target proteins identified using Western blots probed with target-specific antibodies. The effective siRNAs described in Table 3 reduced the levels of the proteins by between 28 and 92% of the mock-treated samples. The reduction in the proteins is less than the reduction of the target mRNA, likely due to the proteins have prolonged half-life and that more time is needed for their degradation. […] We reason that this is due to RPLP1 and RPLP2 functioning as heterodimers such that a decrease of one protein increases the vulnerability of the other protein to degradation. Similar concomitant decrease of the proteins was reported by Campos et al. (17). Finally, the levels of two cellular proteins that are not targeted by the siRNAs, P54nrb and GAPDH, were unaffected.

HCoV-OC43 [1] = experiment: OC43 virion RNA, Branched DNA assay, infected HCT8 cells; assay type: cell-based, human coronavirus OC43; design: reduction in OC43 vRNA: dose or concentration left out as unconfirmed; settings: for OC43 vRNA reduction siRNA and siGRP78: 10 nM siRNA along with 10 nM of siRNA targeting GRP78, HCT8 cells; for OC43 vRNA reduction: 10 nM siRNA
Description: The siRNAs were transfected in the HCT8 cells at a final concentration of 10 nM. A positive control for the inhibition of Coronavirus infection, Remdesivir (Rem), was used at 0.9 μM. The virion RNAs (vRNAs) were quantified using a Branched DNA assay specific for OC43 RNA.
The two siRNAs are those referred to by compound number (see Table 2) in the horizontal bar, along with siRNA targeting GRP78, siGRP78. A positive control for the inhibition of Coronavirus infection, Remdesivir (Rem), was used at 0.9 μM. The vRNAs were quantified using a Branched DNA assay specific for OC43 RNA.
The siRNAs listed in Table 2 were transfected into human colon epithelial HCT8 cells and the amount of OC43 virion produced was quantified. In these assays, the OC43 vRNA was quantified using a Branched DNA assay (QuantiGene gene expression assay: ThermoFisher). As a positive inhibitory control, the infected cells were treated with Remdesivir. […] Examples of the inhibition of OC43 vRNA are illustrated in FIG. 5A.
A combination of siRNAs targeting the host factor should more robustly reduce OC43 virion production. To illustrate this, HCT8 cells were transfected with 10 nM of siRNAs from Table 2 along with 10 nM of siRNA targeting GRP78. The virion RNAs produced were quantified using the Branched DNA assay. […] A combination of siRNAs targeting host factors GRP78, SRSF1, RPLP1 and RPLP2 can lead to significant reduction in the production of human Coronavirus virion RNA from infected cells.

SRSF1 mRNA = experiment: Target mRNA reduction by RT-qPCR in HepG2.2.15 cells; assay type: cell-based, human; settings: 10 nM siRNA
From the text: as §4

SRSF1 protein = experiment: Target protein reduction by Western blot in HepG2.2.15 cells; assay type: cell-based, human; settings: 10 nM siRNA, 72 h
Description: as §5

RPLP1 mRNA = experiment: Target mRNA reduction by RT-qPCR in HepG2.2.15 cells; assay type: cell-based, human; settings: 10 nM siRNA
From the text: as §4

RPLP1 protein = experiment: Target protein reduction by Western blot in HepG2.2.15 cells; assay type: cell-based, human; settings: 10 nM siRNA, 72 h
Description: as §5

HCoV-OC43 [2] = experiment: OC43 virion RNA, RT-qPCR of the OC43 N gene, infected HCT8 cells; assay type: cell-based, human coronavirus OC43; design: dose or concentration left out as unconfirmed

Row | Compound | EC50 (HBsAg) [nM] | CC50 (HepG2.2.15 cells) [nM] | HBeAg reduction HepG2.2.15 cells (HBeAg) [%] | Target RNA reduction in HepG2.2.15 cells (GRP78 mRNA) [%] | Target protein reduction in HepG2.2.15 cells (GRP78 protein) [%] | OC43 vRNA reduction siRNA and siGRP78 (HCoV-OC43 [1]) [%] | OC43 vRNA reduction (HCoV-OC43 [1]; HCT8 cells) [%] | Target RNA reduction in HepG2.2.15 cells (SRSF1 mRNA) [%] | Target protein reduction in HepG2.2.15 cells (SRSF1 protein) [%] | Target RNA reduction in HepG2.2.15 cells (RPLP1 mRNA) [%] | Target protein reduction in HepG2.2.15 cells (RPLP1 protein) [%] | reduction in OC43 vRNA (HCoV-OC43 [1]; HCT8 cells) | OC43 virion production remaining (HCoV-OC43 [2])
1 | 21 (CUGUUACAAUCAAGGUCUATTUAGACCUUGAUUGUAACAGTT; siRNA; Self-complementary hairpin strand, chemistry not given here, further chemistry not given here; listed as Homo sapiens) [compound 21] | 1.6 | > 80 | 61.5 ± 10 | 90 ± 3 | 59 ± 2 | 90 ± 4 | 89 ± 8 |  |  |  |  |  | 
2 | 22 (CAUCUACGUGGGUAACUUAUUUAAGUUACCCACGUAGAUGUU; siRNA; Self-complementary hairpin strand, chemistry not given here, further chemistry not given here; listed as Homo sapiens) [compound 22] | 0.9 | > 80 | 33.5 ± 5 |  |  | 85 ± 4 | 36 ± 3 | 71 ± 1 | 92 ± 20 |  |  |  | 
3 | 23 (CUGGAUAACACUAAGUUUAUUUAAACUUAGUGUUAUCCAGUU; siRNA; Self-complementary hairpin strand, chemistry not given here, further chemistry not given here; listed as Homo sapiens) [compound 23] | 3.9 | > 80 | 29.8 ± 3 |  |  |  |  |  | 81 ± 11 |  |  |  | 
4 | 25 (GAUCAAUGCCCUCAUUAAAGCTTUUUAAUGAGGGCAUUGAUCUUTT; siRNA; Self-complementary hairpin strand, chemistry not given here, further chemistry not given here; listed as Homo sapiens) [compound 25] | 1.83 | > 80 | 60 ± 3 |  |  | 88 ± 3 | 80 ± 7 |  |  | 74 ± 6 | 53 ± 12 |  | 
5 | 26 (GAAGCAAAGAAAGAAGAAUCCTTAUUCUUCUUUCUUUGCUUCCATT; siRNA; Self-complementary hairpin strand, chemistry not given here, further chemistry not given here; listed as Homo sapiens) [compound 26] | 0.376 | > 80 | 64 ± 3 |  |  | 95 ± 1 | 91 ± 3 |  |  | 86 ± 1 | 72 ± 17 |  | 
6 | 27 (GGUCUUUUUGACUAAACCUCUTTAGGUUUAGUCAAAAAGACCAATT; siRNA; Self-complementary hairpin strand, chemistry not given here, further chemistry not given here; listed as Homo sapiens) [compound 27] | 0.11 | > 80 | 55 ± 5 |  |  | 95 ± 2 | 94 ± 4 |  |  | 72 ± 7 | 51 ± 9 |  | 
7 | 28 (UAUGGCCUCUGUCUCCGAGCUUUAGCUCGGAGACAGAGGCCAUAUU; siRNA; Self-complementary hairpin strand, chemistry not given here, further chemistry not given here; listed as Homo sapiens) [compound 28] | 0.19 | > 80 | 30 ± 4 |  |  | 71 ± 6 | 48 ± 12 |  |  | 80 ± 2 | 58 ± 7 |  | 
8 | 29 (UGUCUCCGAGCUCGCCUGCAUUUAUGCAGGCGAGCUCGGAGACAUU; siRNA; Self-complementary hairpin strand, chemistry not given here, further chemistry not given here; listed as Homo sapiens) [compound 29] | 0.386 | > 80 | 58 ± 3 |  |  | 92 ± 3 | 87 ± 10 |  |  | 75 ± 1 | 52 ± 4 |  | 
9 | 30 (AGGAUAAGAUCAAUGCCCUUCUUGAAGGGCAUUGAUCUUAUCCUUU; siRNA; Self-complementary hairpin strand, chemistry not given here, further chemistry not given here; listed as Homo sapiens) [compound 30] | 0.69 | > 80 | 58 ± 4 |  |  | 84 ± 6 | 90 ± 6 |  |  | 78 ± 3 | 45 ± 8 |  | 
10 | 32 (AGAAGAAAGUGGAAGCAAAGAUUUCUUUGCUUCCACUUUCUUCUUU; siRNA; Self-complementary hairpin strand, chemistry not given here, further chemistry not given here; listed as Homo sapiens) [compound 32] | 0.525 | > 80 | 32 ± 6 |  |  | 86 ± 4 | 87 ± 4 |  |  | 80 ± 7 | 71 ± 8 |  | 
11 | CCC(CC)COC(=O)[C@H](C)N[P@](=O)(OC[C@H]1O[C@@](C#N)(c2ccc3c(N)ncnn23)[C@H](O)[C@@H]1O)Oc1ccccc1 [Remdesivir, reference compound] |  |  |  |  |  |  |  |  |  |  |  | more than 98% | less than 5%

— patent US11613750B2, “Methods of reducing virus molecule levels” (priority 2019, dated 2023)
